Each block holds one compound with its values, some of them ahead of it.
Experiments:
[1] = target: T1, hERG potassium channel (Homo sapiens, UniProt Q12809); assay: hERG potassium channel inhibition activity test (Qpatch, CHO-hERG cells); format: cell-based
T1 construct: expressed in transfected cells; host or cells: CHO-hERG cells
Method: 4.1.1 CHO-hERG cells were cultured in a 175 cm2 culture flask. After the cell density reached 60˜80%, the culture solution was removed. The cells were washed with 7 mL of PBS once, and dissociated with 3 mL of Detachin.
4.1.2 After completion of dissociation, the cells were neutralized with 7 mL of culture solution. The solution was centrifuged, and the supernate was removed. The cells were resuspended in 5 mL of culture solution. The cell indensity is ensured as […].
Single cell sealing impedance and formation of whole-cell mode were automatically performed by Qpatch instrument. After obtaining the whole-cell recording mode, the cell was clamped at −80 mV. The cell first underwent pre-voltage of −50 mV for 50 msec, then underwent depolarization stimulation at +40 mV for 5 sec, and then underwent repolarization at −50 mV for 5 sec. and then the voltage returned to −80 mV. The cell underwent the stimulation at the voltage every 15 sec, and the data were recorded for 2 min, then extracellular fluid was administrated, and then the data were recorded for 5 min. Then, the administration process begun. The concentration of the test compound started from the lowest concentration, each test concentration was administrated for 2.5 min. At least three cells were tested for each concentration.
4.4.1 20 mM mother liquor of the compound was diluted with extracellular fluid, 5 uL of 20 mM mother liquor of the compound was added with 2495 uL of extracellular fluid to obtain a concentration of 40 uM (500-fold dilution). The solution was subjected to a 3-fold serial dilution with extracellular fluid containing 0.2% DMSO to obtain a required final concentration.
This concentration of DMSO had no effect on hERG potassium channel.
The experimental data was analyzed by XLFit software.

[2] = Pharmacokinetics assay in mice (oral, plasma); format: in vivo, Balb/c Mouse; details: for Exposure in mouse plasma: dose of 50 mg/kg, oral; for Cmax / MRT / Tmax / half-life / AUC(0-t): mouse, male Balb/c mice, PO 50 mg/kg, plasma; for AUC(0-t): read-out: AUC0-24
Method: Balb/c Mouse was used as the test animal. The pharmacokinetic behavior of compounds of Example 1, 2 and 7 administrated orally was studied in mice (plasma).
170 g of PEG400 and 20 g of Solutol HS-15 were added to a 250 mL glass flask, and then 10 mL of NMP was added. The solution was mixed well by ultrasound for 10 minutes to obtain a clear solution.
11.2 mg of the compound of Example 1, 10.8 mg of the compound of Example 2 and 9.8 mg of the compound of Example 7 were weighted to a 4 mL glass flasks respectively, […], 2.160 mL and […] of the above solution were treated by ultrasound for 10 minutes to obtain a colorless clear solution with a concentration of 5 mg/mL.
After fasting overnight, the male Balb/c mice were administrated with the compounds (PO), the dose was 50 mg/kg, and the administration volume was 10 mL/kg.
Blood was taken before administration and at 0.25, 0.5, 1, 2, 4, 6, 8 and 24 hours after administration. The blood samples were stored in EDTA-2K tubes, and centrifuged for 6 minutes to separate the blood plasma. The plasma samples were stored at −80° C.

[3] = tested on: human pancreatic cancer cell MiaPaca 2 xenograft (CDX) model; assay: Tumor inhibition experiment in MiaPaca 2 xenograft model; format: in vivo, BALB/c nude mice
Method: BALB/c nude mice were used as test animals. In vivo pharmacodynamic test was carried out in human pancreatic cancer cell MiaPaca 2 xenograft (CDX) model to evaluate the antitumor effect of the test compound.
MiaPaca 2 cells were obtained from the cell bank. After recovery, the cells were added to a DMEM medium (containing 10% FBS, 1% Glu and 1% P/S), and incubated in the CO2 incubator (the incubator temperature was 37° C., and the CO2 concentration was 5%). The cells were subjected to passage after spreading 80-90% of the bottom of the culture flask. After passage, the cells were incubated in the CO2 incubator. This process was repeated until the number of cells met the required by in vivo pharmacological inoculation. Cells in log phase were collected, and counted by the automatic cell counter. The cells were re-suspended with PBS and Matrigel (1:1 by volume) based on the counting results to obtain a cell suspension (cell density: […]), which was placed in an ice box.
Female BALB/c nude mice (6-8 weeks old, body weight: 18-22 grams) were used as test animals. The mice were maintained in individually ventilated cages (5 mice per cage) in a special pathogen-free environment. All cages, padding and water were disinfected before use. All animals had free access to standard certified commercial laboratory diets. The nude mice were labeled with disposable ear tags before the experiment. The skin of the inoculated area was sterilized with 75% medical alcohol before inoculation. Each mouse was subcutaneously inoculated with 0.1 ml (containing 8*10^6 cells) of MiaPaca 2 tumor cells on the right back. Administration was started when the average tumor volume reached 100-200 mm^3. The test compound was administrated intragastrically daily. The tumor volume (mm^3) was measured with vernier caliper twice a week. Calculation formula: V=0.5*D*d*d, wherein D and d refer to the major and minor diameter of the tumor, respectively. The anti-tumor efficacy was determined by dividing the average tumor increase volume of compound-treated animals by the average tumor increase volume of untreated animals. Calculation formula of tumor inhibition rate: TGI (%)=1−[(Vt−V0)administration group/(Vt−V0)solvent control group]*100%. All animals were euthanized after the experiment.

[4] = 50 mg/kg BID × 3 w, intragastric
[5] = 100 mg/kg QD × 3 w, intragastric
[6] = 50 mg/kg QD × 16 d, intragastric, Day 16

T1 sequence (Q12809 whole entry): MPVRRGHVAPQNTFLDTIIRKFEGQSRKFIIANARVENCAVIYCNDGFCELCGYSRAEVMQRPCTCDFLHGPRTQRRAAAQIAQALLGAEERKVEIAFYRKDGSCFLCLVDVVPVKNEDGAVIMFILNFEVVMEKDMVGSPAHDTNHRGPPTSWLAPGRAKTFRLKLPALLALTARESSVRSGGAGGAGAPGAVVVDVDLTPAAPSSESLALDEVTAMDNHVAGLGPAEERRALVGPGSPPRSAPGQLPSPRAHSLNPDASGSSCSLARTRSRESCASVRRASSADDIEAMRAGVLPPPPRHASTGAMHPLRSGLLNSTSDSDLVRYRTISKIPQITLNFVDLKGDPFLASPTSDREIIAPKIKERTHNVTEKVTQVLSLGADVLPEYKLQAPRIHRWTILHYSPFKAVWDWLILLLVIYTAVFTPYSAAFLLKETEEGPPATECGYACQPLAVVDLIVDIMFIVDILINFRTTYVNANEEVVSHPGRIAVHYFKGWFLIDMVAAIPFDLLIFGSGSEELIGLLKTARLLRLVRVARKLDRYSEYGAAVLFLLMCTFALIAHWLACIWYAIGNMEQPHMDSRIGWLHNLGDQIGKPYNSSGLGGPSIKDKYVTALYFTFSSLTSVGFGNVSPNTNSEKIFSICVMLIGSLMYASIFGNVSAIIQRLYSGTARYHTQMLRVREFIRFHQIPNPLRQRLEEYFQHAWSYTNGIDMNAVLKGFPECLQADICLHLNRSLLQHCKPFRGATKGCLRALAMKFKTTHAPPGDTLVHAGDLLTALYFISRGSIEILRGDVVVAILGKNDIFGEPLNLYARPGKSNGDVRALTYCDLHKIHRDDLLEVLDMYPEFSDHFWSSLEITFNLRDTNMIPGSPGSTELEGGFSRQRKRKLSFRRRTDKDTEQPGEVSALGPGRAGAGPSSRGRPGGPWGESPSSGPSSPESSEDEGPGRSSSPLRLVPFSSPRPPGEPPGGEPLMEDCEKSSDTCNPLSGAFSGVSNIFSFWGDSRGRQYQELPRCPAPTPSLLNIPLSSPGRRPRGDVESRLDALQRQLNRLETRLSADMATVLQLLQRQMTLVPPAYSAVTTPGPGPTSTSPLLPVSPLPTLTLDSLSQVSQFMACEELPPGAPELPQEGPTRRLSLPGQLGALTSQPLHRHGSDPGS

- Exposure in mouse plasma [2]: good exposure
- Cmax [2]: 15900 ng/mL
- MRT [2]: 2.44 h
- Tmax [2]: 2 h
- half-life [2]: 0.82 h
- AUC(0-t) [2]: 50400 ng·h/mL
SMILES: C[C@@H](NC(=O)c1nc2cc3c(-c4ccncc4)n[nH]c3cc2[nH]1)c1ccccc1 [Example 2, (R)—N-(1-phenylethyl)-3-(pyridin-4-yl)-1,7-dihydroimidazo[4,5-f]indazole-6-carboxamide]
- Inhibition effect on cardiac hERG potassium channel [1]: no inhibition effect
- IC50 ([1]; CHO-hERG cells, highest test concentration 40 uM, read-out: hERG (inhibition effect on hERG current)): > 40 µM
- Tumor volume (Mean ± SD) Day 0 [3, 4]: 156 ± 27 mm^3
- TGI Day 21 [3, 4]: 85.07%
- Tumor volume (Mean ± SD) Day 21 [3, 4]: 253 ± 32 mm^3
- ΔT/ΔC Day 21 [3, 4]: 14.93%
- Inhibition of growth of xenograft ([3]; 50 mg/kg BID, continuous oral administration for 21 days): significantly inhibit the growth
- Tumor volume (Mean ± SD) Day 0 [3, 5]: 156 ± 24 mm^3
- TGI Day 21 [3, 5]: 91.14%
- Tumor volume (Mean ± SD) Day 21 [3, 5]: 214 ± 104 mm^3
- ΔT/ΔC Day 21 [3, 5]: 8.86%
- Inhibition of growth of xenograft ([3]; 100 mg/kg QD, continuous oral administration for 21 days): significantly inhibit the growth

- Exposure in mouse plasma [2]: good exposure
- Cmax [2]: 1310 ng/mL
- MRT [2]: 8.99 h
- Tmax [2]: 0.5 h
- half-life [2]: 6.59 h
- AUC(0-t) [2]: 14700 ng·h/mL
SMILES: C[C@@H](NC(=O)c1cc2cc3c(-c4ccncc4)n[nH]c3cc2[nH]1)c1ccccc1 [Example 1, (R)—N-(1-phenylethyl)-3-(pyridin-4-yl)-1,7-dihydropyrrolo[3,2-f]indazole-6-carboxamide]
- Tumor volume (Mean ± SD) Day 0 ([3]; 50 mg/kg QD × 16 d, intragastric): 154 ± 29 mm^3
- TGI Day 16 [3, 6]: 86.63%
- Tumor volume (Mean ± SD) Day 16 [3, 6]: 214 ± 97 mm^3
- ΔT/ΔC Day 16 [3, 6]: 13.37%
- Inhibition of growth of xenograft ([3]; 50 mg/kg QD, continuous oral administration for 16 days): significantly inhibit the growth

From patent publication US20200247815A1, “PYRAZOLYL-CONTAINING TRICYCLIC DERIVATIVE, PREPARATION METHOD THEREFOR AND USE THEREOF” (Jiangsu Hansoh Pharmaceutical Group Co., Ltd., priority 2017, published 2020)
